# Test results from patent US5061794A, “Cephalosporin derivatives, and antibacterial agents” (priority 1986, dated 1991).
# Like-named read-outs stand apart in the source and are kept apart here.
# Tests used:
# [1] = tested on: E. coli CSH(RE45); assay: microbe, parasite or virus in culture; type: cell-based; conditions: 10^6 CFU/ml; for MIC: Escherichia coli, 16 h, read-out: Minimum Inhibitory Concentration (MIC), *E. coli CSH(RE45), lactamase-producing strain
# Method in brief: (§1)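 Agar plate dilution on Mueller Hinton agar containing graded compound levels, inoculated at 10^6 CFU/ml from overnight Mueller Hinton broth cultures. MIC (μg/ml) read after 16 h at 37°C.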
# [2] = tested on: E. coli CSH2 (RK1); assay: microbe, parasite or virus in culture; type: cell-based; conditions: 10^6 CFU/ml; for MIC: Escherichia coli, 16 h, read-out: Minimum Inhibitory Concentration (MIC), *E. coli CSH2 (RK1), lactamase-producing strain
# Method in brief: as §1
# [3] = tested on: E. cloacae 963; assay: in vitro antibacterial activity, agar plate dilution method (MIC); type: cell-based; conditions: 10^6 CFU/ml
# Method in brief: as §1
# [4] = tested on: E. cloacae Nek 39; assay: as above; type: cell-based; conditions: 10^6 CFU/ml; for MIC: Enterobacter cloacae, NEK39, 16 h, read-out: Minimum Inhibitory Concentration (MIC), *E. cloacae Nek 39, lactamase-producing strain
# Method in brief: as §1
# [5] = tested on: E. coli GN5482; assay: as above; type: cell-based; conditions: Escherichia coli, GN5482, 16 h
# Method in brief: as §1
# [6] = tested on: E. coli NIHJ JC2; assay: as above; type: cell-based; conditions: for MIC: Escherichia coli, NIHJJC2, 16 h, read-out: Minimum Inhibitory Concentration (MIC), E. coli NIHJ JC2, 10^6 CFU/ml, 37° C.
# Method in brief: as §1
# [7] = tested on: K. oxytoca GN10650; assay: as above; type: cell-based; conditions: 10^6 CFU/ml; for MIC: Klebsiella oxytoca
# Method in brief: as §1
# [8] = tested on: K. pneumoniae No. 42; assay: as above; type: cell-based; conditions: 10^6 CFU/ml; for MIC: Klebsiella pneumoniae
# Method in brief: as §1
# [9] = tested on: K. pneumoniae PCI-602; assay: as above; type: cell-based; conditions: Klebsiella pneumoniae, PCI602, 16 h, 10^6 CFU/ml
# Method in brief: as §1
# [10] = tested on: M. morganii GN5407; assay: as above; type: cell-based; conditions: 10^6 CFU/ml; for MIC: Morganella morganii, GN5407, 16 h, read-out: Minimum Inhibitory Concentration (MIC), *M. morganii GN5407, lactamase-producing strain
# Method in brief: as §1
# [11] = tested on: P. vulgaris HX-19; assay: as above; type: cell-based; conditions: P. vulgaris HX-19, 10^6 CFU/ml; for MIC: Proteus vulgaris, HX19, 16 h, read-out: Minimum Inhibitory Concentration (MIC)
# Method in brief: as §1
# [12] = tested on: P. vulgaris No. 33; assay: as above; type: cell-based; conditions: 10^6 CFU/ml; for MIC: Proteus vulgaris, NO.33, 16 h, read-out: Minimum Inhibitory Concentration (MIC), *P. vulgaris No. 33, lactamase-producing strain
# Method in brief: as §1
# [13] = tested on: S. aureus 209P NIHJ-JC1; assay: as above; type: cell-based; conditions: Staphylococcus aureus, 16 h
# Method in brief: as §1
# [14] = tested on: S. marcescens IAM 1184; assay: as above; type: cell-based; conditions: Serratia marcescens, IAM1184, 16 h, read-out: Minimum Inhibitory Concentration (MIC)
# Method in brief: as §1
# [15] = tested on: S. marcescens No. 16-2; assay: as above; type: cell-based; conditions: 10^6 CFU/ml; for MIC: Serratia marcescens, NO.162, 16 h
# Method in brief: as §1
# [16] = tested on: Ps. aeruginosa AK 109; assay: as above; type: cell-based, Pseudomonas aeruginosa; conditions: Pseudomonas aeruginosa, AK109, 16 h, read-out: Minimum Inhibitory Concentration (MIC)
# Method in brief: as §1
# [17] = tested on: Ps. aeruginosa AKR17; assay: as above; type: cell-based, Pseudomonas aeruginosa; conditions: Pseudomonas aeruginosa, read-out: Minimum Inhibitory Concentration (MIC)
# Method in brief: as §1
# [18] = tested on: Ps. aeruginosa IF03445; assay: as above; type: cell-based, Pseudomonas aeruginosa; conditions: 10^6 CFU/ml; for MIC: Pseudomonas aeruginosa
# Method in brief: as §1
# [19] = tested on: Ps. cepacia 23; assay: as above; type: cell-based, Pseudomonas cepacia; conditions: read-out: Minimum Inhibitory Concentration (MIC)
# Method in brief: as §1
# [20] = tested on: A. calcoaceticus No. 4; assay: as above; type: cell-based, Acinetobacter calcoaceticus; conditions: 10^6 CFU/ml; for MIC: Acinetobacter calcoaceticus, NO.4, 16 h
# Method in brief: as §1
# [21] = Enterobacter cloacae, 963, 16 h, read-out: Minimum Inhibitory Concentration (MIC), E. cloacae 963
# [22] = read-out: Minimum Inhibitory Concentration (MIC), *E. coli GN5482, lactamase-producing strain, 10^6 CFU/ml
# [23] = GN10650, 16 h, read-out: Minimum Inhibitory Concentration (MIC), *K. oxytoca GN10650, lactamase-producing strain
# [24] = NO.42, 16 h, read-out: Minimum Inhibitory Concentration (MIC), *K. pneumoniae No. 42, lactamase-producing strain
# [25] = read-out: Minimum Inhibitory Concentration (MIC), K. pneumoniae PCI-602
# [26] = read-out: Minimum Inhibitory Concentration (MIC), S. aureus 209P NIHJ-JC1, 10^6 CFU/ml, 37° C., 16 hours
# [27] = S. marcescens IAM 1184, 10^6 CFU/ml
# [28] = read-out: Minimum Inhibitory Concentration (MIC), *S. marcescens No. 16-2, lactamase-producing strain
# [29] = 16 h, Ps. aeruginosa AKR17, 10^6 CFU/ml
# [30] = IF03445, 16 h, read-out: Minimum Inhibitory Concentration (MIC), Ps. aeruginosa IF03445
# [31] = Burkholderia cepacia, 16 h, Ps. cepacia 23, 10^6 CFU/ml
# [32] = A. calcoaceticus No. 4, read-out: Minimum Inhibitory Concentration (MIC)
# [33] = Enterobacter cloacae, 16 h, E. cloacae 963, read-out: Minimum Inhibitory Concentration (MIC)
# [34] = 16 h, *K. pneumoniae No. 42, lactamase-producing strain, read-out: Minimum Inhibitory Concentration (MIC)
# [35] = Ps. aeruginosa AK 109, 10^6 CFU/ml
# [36] = read-out: Minimum Inhibitory Concentration (MIC)
Compound,MIC [1] [µg/mL],MIC [2] [µg/mL],"MIC [3, 21] [µg/mL]",MIC [4] [µg/mL],"MIC [5, 22] [µg/mL]",MIC [6] [µg/mL],"MIC [7, 23] [µg/mL]","MIC [8, 24] [µg/mL]","MIC [9, 25] [µg/mL]",MIC [10] [µg/mL],MIC [11] [µg/mL],MIC [12] [µg/mL],"MIC [13, 26] [µg/mL]","MIC [14, 27] [µg/mL]","MIC [15, 28] [µg/mL]","MIC [17, 29] [µg/mL]","MIC [18, 30] [µg/mL]","MIC [19, 31] [µg/mL]","MIC [20, 32] [µg/mL]","MIC [16, 35] [µg/mL]",also measured
"CON=C(C(=O)NC1C(=O)N2C(C(=O)O)=C(CSc3ncc(-c4ccc(O)c(O)c4)o3)CSC12)c1csc(N)n1 (stereo not shown) [Ex. 62, sodium 75-[2-(2-aminothiazol-4-yl)-2-methoxyiminoacetamido]-3-[5-(3,4-dihydroxyphenyl)-oxazol-2-yl]thiomethyl-3-cephem-4-carboxylate]",0.05,0.025,0.05,0.78,1.56,0.2,3.12,0.025,< 0.006,0.1,< 0.006,0.025,1.56,0.025,6.25,> 100,1.56,< 0.006,0.2,–,MIC [16]: 3.12 µg/mL
"CO/N=C(\C(=O)N[C@@H]1C(=O)N2C(C(=O)O)=C(CSc3nnc(-c4ccc(O)cc4)o3)CS[C@H]12)c1csc(N)n1 [compound 2, reference compound]",0.39,0.78,–,6.25,0.78,0.78,–,–,–,0.78,< 0.006,0.78,0.78,–,–,> 100,–,–,50,50,"MIC [3, 33]: 1.56 µg/mL; MIC ([7]; 16 h, *K. oxytoca GN10650, lactamase-producing strain, read-out: Minimum Inhibitory Concentration (MIC)): 25 µg/mL; MIC [8, 34]: 1.56 µg/mL; MIC ([9]; K. pneumoniae PCI-602, read-out: Minimum Inhibitory Concentration (MIC)): 0.0125 µg/mL; MIC [14]: 0.78 µg/mL; MIC ([15]; *S. marcescens No. 16-2, lactamase-producing strain, read-out: Minimum Inhibitory Concentration (MIC)): 25 µg/mL; MIC ([18]; 16 h, Ps. aeruginosa IF03445, read-out: Minimum Inhibitory Concentration (MIC)): 100 µg/mL; MIC ([19]; Burkholderia cepacia, 23, 16 h): 12.5 µg/mL"
"CC(=O)Oc1ccc(-c2nc(SCC3=C(C(=O)O)N4C(=O)C(NC(=O)C(=NOC(C(=O)O)c5ccccc5)c5csc(N)n5)C4SC3)sc2CC(=O)O)cc1OC(C)=O (single isomer, unassigned) [Example 61 DA]",–,–,0.39,–,–,–,–,–,< 0.006,–,–,–,–,0.05,–,–,–,< 0.006,–,–,"Minimum Inhibitory Concentration (MIC) ([1]; *E. coli CSH(RE45), lactamase-producing strain): 3.12 µg/mL; Minimum Inhibitory Concentration (MIC) ([2]; *E. coli CSH2 (RK1), lactamase-producing strain): 0.0125 µg/mL; Minimum Inhibitory Concentration (MIC) ([4]; *E. cloacae Nek 39, lactamase-producing strain): 0.1 µg/mL; MIC [5, 36]: 0.39 µg/mL; Minimum Inhibitory Concentration (MIC) ([6]; E. coli NIHJ JC2, 10^6 CFU/ml, 37° C., 16 hours): 0.78 µg/mL; Minimum Inhibitory Concentration (MIC) ([7]; *K. oxytoca GN10650, lactamase-producing strain): 0.05 µg/mL; Minimum Inhibitory Concentration (MIC) ([8]; *K. pneumoniae No. 42, lactamase-producing strain): 0.1 µg/mL; Minimum Inhibitory Concentration (MIC) ([10]; *M. morganii GN5407, lactamase-producing strain): 0.05 µg/mL; Minimum Inhibitory Concentration (MIC) [11]: < 0.006 µg/mL; Minimum Inhibitory Concentration (MIC) ([12]; *P. vulgaris No. 33, lactamase-producing strain): 0.025 µg/mL; MIC ([13]; S. aureus 209P NIHJ-JC1, 10^6 CFU/ml, 37° C., 16 hours, read-out: Minimum Inhibitory Concentration (MIC)): 25 µg/mL; Minimum Inhibitory Concentration (MIC) ([15]; *S. marcescens No. 16-2, lactamase-producing strain): 0.78 µg/mL; MIC [16]: 0.39 µg/mL; MIC ([17]; AKR17, 16 h): 0.39 µg/mL; Minimum Inhibitory Concentration (MIC) ([18]; Ps. aeruginosa IF03445): 0.39 µg/mL; Minimum Inhibitory Concentration (MIC) ([20]; A. calcoaceticus No. 4): 0.1 µg/mL"
"CC(C)(O/N=C(\C(=O)N[C@@H]1C(=O)N2C(C(=O)O)=C(CSc3nc(-c4ccccc4)cs3)CS[C@H]12)c1csc(N)n1)C(=O)O [compound 11, disodium 7β-[2-(2-aminothiazol-4-yl)-2-(1-carboxylate-1-methylethoxyimino)acetamido]-3-(4-phenylthiazol-2-yl) thiomethyl-3-cephem-4-carboxylate, reference compound]",1.56,1.56,–,12.5,1.56,3.12,3.12,3.12,0.1,1.56,< 0.006,0.78,–,–,6.25,> 100,12.5,–,> 100,50,"MIC [3, 33]: 6.2 µg/mL; MIC [13, 36]: 3.12 µg/mL; MIC [14]: 1.56 µg/mL; MIC ([19]; Burkholderia cepacia, 23, 16 h): 12.5 µg/mL"
Nc1nc(/C(=N/OCc2ccccc2CC(=O)O)C(=O)N[C@@H]2C(=O)N3C(C(=O)O)=C(CSc4nnc(-c5ccc(O)c(O)c5)o4)CS[C@H]23)cs1 [Ex. 23],< 0.006,< 0.006,0.025,0.1,0.78,0.2,0.1,–,< 0.006,0.025,< 0.006,0.0125,6.25,0.025,1.56,–,0.39,< 0.006,–,0.1,"MIC [8, 34]: < 0.006 µg/mL; MIC ([17]; AKR17, 16 h): 12.5 µg/mL; MIC ([20]; read-out: Minimum Inhibitory Concentration (MIC), A. calcoaceticus No. 4): 0.1 µg/mL"
